Measured values from US11724998B2, “PXR agonists and uses thereof for gut barrier dysfunction treatment and prevention” (Albert Einstein College of Medicine, priority 2017, dated 2023).
Entries after “also recorded” stand apart in the source; their conditions may differ.

Experiments:
PXR LBD = molecular target: T1, PXR LBD (Homo sapiens, UniProt O75469); test: One-hybrid PXR LBD reporter gene assay in Caco-2 cells; format: cell-based; conditions: 24 h exposure, FIG. 3
T1 construct: validated using a one-hybrid PXR LBD reporter assay; expressed in transfected cells; host or cells: Caco-2
T1 sequence (O75469 146-433 limits assumed): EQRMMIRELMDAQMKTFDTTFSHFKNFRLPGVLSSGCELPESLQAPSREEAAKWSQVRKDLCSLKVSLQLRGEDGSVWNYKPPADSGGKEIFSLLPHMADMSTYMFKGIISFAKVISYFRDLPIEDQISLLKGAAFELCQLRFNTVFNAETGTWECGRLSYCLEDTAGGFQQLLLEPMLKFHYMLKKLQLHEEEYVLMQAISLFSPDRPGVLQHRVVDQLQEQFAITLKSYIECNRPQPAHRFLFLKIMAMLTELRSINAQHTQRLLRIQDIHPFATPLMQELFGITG
Method: FIG. 3. One-hybrid PXR reporter gene assay. Performed in Caco-2 cells as a 24 h exposure to FKK5 at two different concentrations.

AhR = molecular target: T2, AhR (Homo sapiens, UniProt P35869); test: HTS nuclear receptor activation screen using LS180 cells (AhR); format: cell-based; conditions: data not shown
T2 sequence (P35869 11-848): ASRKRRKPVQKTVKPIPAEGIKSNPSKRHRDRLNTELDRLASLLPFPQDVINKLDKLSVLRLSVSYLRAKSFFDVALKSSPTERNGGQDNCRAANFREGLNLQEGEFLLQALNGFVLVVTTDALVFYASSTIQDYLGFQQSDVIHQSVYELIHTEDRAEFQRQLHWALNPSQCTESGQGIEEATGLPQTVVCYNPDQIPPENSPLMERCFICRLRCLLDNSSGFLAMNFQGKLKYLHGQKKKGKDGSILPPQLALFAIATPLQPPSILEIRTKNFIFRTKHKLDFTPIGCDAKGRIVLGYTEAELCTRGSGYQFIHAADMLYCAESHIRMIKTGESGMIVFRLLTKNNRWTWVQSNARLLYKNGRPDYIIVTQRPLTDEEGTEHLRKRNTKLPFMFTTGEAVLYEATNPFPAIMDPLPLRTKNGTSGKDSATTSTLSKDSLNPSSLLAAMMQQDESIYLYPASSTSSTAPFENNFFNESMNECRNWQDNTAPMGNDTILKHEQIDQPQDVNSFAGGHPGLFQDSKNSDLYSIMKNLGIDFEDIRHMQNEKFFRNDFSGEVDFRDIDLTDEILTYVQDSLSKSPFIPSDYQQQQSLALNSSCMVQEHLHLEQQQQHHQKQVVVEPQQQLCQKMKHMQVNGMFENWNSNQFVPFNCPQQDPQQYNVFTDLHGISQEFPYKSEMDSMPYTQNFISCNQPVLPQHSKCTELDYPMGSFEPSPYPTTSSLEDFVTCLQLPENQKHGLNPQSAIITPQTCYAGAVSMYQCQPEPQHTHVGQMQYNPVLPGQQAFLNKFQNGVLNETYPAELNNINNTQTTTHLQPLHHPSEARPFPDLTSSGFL

[1] = system: CAR, constitutive androstane receptor; test: Nuclear receptor transactivation assay in Caco-2 cells (CAR); format: cell-based; conditions: FIG. 4
Method: (§1) FIG. 4. Nuclear Receptor transactivation assays in caco-2 (day 0) cells. Methods used are published (33). Assays were performed at least two times in triplicate CAR, constitutive androstane receptor; TCBOPOP, CAR ligand; LXR, Liver X receptor; T0901315, LXR ligand. n.s, not significant.
(§2) IPA/Indoles can have weak (˜2 fold) but important effects on the activation of other nuclear receptors (e.g., CAR, LXR) (33). […] Some receptors, specifically CAR and LXR, can act to induce liver steatosis (79, 83-86) and hepatocarcinogenesis (CAR) (80, 84, 87-89) and thus, avoiding excessive activation of these nuclear receptors in the context of PXR activation would be important. […] CDK5 (along with CDK2) are important kinases that phosphorylate and inhibit PXR activation (90). Accordingly, based on the data, it is unlikely that FKK5 activates PXR via inhibition of CDK5.

LXR, Liver X receptor = test: Nuclear receptor transactivation assay in Caco-2 cells (LXR); format: cell-based; conditions: FIG. 4
Method: as §1, §2

CDK5/p25 enzyme = CDK5/p25 enzyme (Homo sapiens, UniProt Q00535); test: ADP-Glo kinase assay with CDK5/p25 enzyme; format: biochemical; conditions: up to 20 μM
Chain of CDK5/p25 enzyme (Q00535 whole entry, species assumed): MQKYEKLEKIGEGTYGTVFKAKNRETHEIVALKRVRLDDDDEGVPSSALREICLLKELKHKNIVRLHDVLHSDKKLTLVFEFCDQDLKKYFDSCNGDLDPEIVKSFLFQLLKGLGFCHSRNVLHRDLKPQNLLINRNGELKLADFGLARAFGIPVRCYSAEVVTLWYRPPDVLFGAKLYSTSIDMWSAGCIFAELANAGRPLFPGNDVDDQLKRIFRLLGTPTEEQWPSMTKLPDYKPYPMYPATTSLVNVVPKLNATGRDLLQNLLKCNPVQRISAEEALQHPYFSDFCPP
Chain of CDK5/p25 enzyme (Q15078 99-307 partner limits assumed, species assumed): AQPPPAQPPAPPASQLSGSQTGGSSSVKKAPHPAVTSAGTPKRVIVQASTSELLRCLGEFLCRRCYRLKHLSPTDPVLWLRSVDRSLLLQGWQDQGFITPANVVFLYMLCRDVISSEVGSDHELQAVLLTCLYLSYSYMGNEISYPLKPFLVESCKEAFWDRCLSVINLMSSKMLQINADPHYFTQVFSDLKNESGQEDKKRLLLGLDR
Method: FIG. 5. ADP-Glo kinase with CDK5/p25 enzyme. Michaelis-Menton fit of RLU values across FKK5 concentrations after enzyme and time of incubation was optimized. The fit is nearly similar with one curve describing all concentration effects. Km˜0.01483; Ki˜4.656e+099; Vmax˜53380.
as §2

plated hepatocytes = test: LDH release assay in plated hepatocytes; format: cell-based; conditions: 24 h and 48 h exposure; FIG. 1
Method: FIG. 1A-1B. FKK compound cytotoxicity assay. (A) MTT cell cytotoxicity assay in LS180 cells lines (NCBI Bookshelf: world wide web ncbi.nlm.nih.gov/books/NBK144065/). […] (B) LDH release assay performed in plated hepatocytes after a 24 h and 48 h exposure. For both panels, assays were performed at least two times in triplicate.
A very unique feature of simple indole structures (FKK1-10) is that they are predicted to have very short systemic residence times limiting systemic drug exposure and any potential for off-target effects in organs other than the intestines (78).

PXR = molecular target: T3, PXR (Homo sapiens, UniProt O75469); test: Isothermic titration calorimetry (ITC); format: binding; conditions: FIG. 11
T3 sequence (O75469 1-434): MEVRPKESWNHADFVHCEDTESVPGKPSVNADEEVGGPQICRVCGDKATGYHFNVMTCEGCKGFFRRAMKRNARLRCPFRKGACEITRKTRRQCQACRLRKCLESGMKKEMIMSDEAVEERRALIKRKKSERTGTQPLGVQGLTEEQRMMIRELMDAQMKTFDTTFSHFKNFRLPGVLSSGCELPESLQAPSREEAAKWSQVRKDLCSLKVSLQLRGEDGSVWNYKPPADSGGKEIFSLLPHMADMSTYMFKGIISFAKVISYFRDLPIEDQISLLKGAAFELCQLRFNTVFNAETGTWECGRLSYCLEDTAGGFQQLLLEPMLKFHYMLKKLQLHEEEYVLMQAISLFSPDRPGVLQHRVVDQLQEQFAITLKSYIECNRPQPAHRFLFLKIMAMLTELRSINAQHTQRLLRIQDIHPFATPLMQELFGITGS

IL-8 = test: TNF-induced IL-8 in human intestinal organoids; format: cell-based; conditions: initial experiment n=2, FIG. 12
Text: Intestinal organoids were developed using human small intestines and stem cell isolation and propagation in vitro.

activation of PXR (PXR LBD): ~5 fold
AhR activation (AhR): not AhR
inhibition of CDK5/p25 enzyme (CDK5/p25 enzyme): does not inhibit
binding to human PXR (PXR): efficient and direct binding
SMILES: O=C(c1ccncc1)c1cc2ccccc2n1S(=O)(=O)c1ccccc1 [FKK5]
CAR activation [1]: does not activate
CAR function with increasing concentrations [1]: CAR function is inhibited
LXR activation (LXR, Liver X receptor): does not activate
cytotoxicity in hepatocytes (plated hepatocytes): no cytotoxicity observed
TNF-induced IL-8 expression (IL-8): significant attenuation; also recorded: reduces pro-inflammatory cytokine IL-8 expression
